Assays:
caspase-1 = molecular target: T1, caspase-1 (Homo sapiens, UniProt P29466); assay: Caspase-1 enzyme inhibition (Ki, method of Margolin et al.); assay type: biochemical; conditions: Suc-YVAD-pNA substrate 80 μM, 37° C., pH 7.5; read-out: Ki C1
T1 sequence (P29466 120-297 limits assumed): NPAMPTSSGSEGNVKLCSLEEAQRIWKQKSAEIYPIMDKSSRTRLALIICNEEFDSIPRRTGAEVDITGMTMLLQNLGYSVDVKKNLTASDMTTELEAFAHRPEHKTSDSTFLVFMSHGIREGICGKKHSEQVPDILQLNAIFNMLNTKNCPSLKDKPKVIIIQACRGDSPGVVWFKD
T1 sequence (P29466 317-404 limits assumed): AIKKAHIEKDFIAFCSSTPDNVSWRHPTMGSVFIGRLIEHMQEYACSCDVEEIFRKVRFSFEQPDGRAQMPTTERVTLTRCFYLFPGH
Experimental: (§1) Compounds of this invention may be tested using the methods described below.
(§2) In Vitro Assays Enzyme Inhibition
(§3) Ki values for test compounds with caspase-1 and caspase-8 were obtained by the method of Margolin et al. (J. Biol. Chem., 272 pp. 7223-7228 (1997)). Other caspases may be assayed similarly (see, e.g., WO 99/47545). Assays were performed in 10 mM Tris (Sigma Corp, St Louis Mo.) pH 7.5, 1 mM Dithiothreitol (DTT, Research Organic INC, Cleveland, Ohio) and 0.1% CHAPS (Pierce, Rockford Ill.) at 37° C. For caspase-3, a solution of 8% glycerol was added to the assay buffer to improve enzyme stability. A 65 μL aliquot of the assay buffer and 5 μL aliquot of the appropriate dilutions of inhibitor in DMSO where pipetted into a 96 well plate, treated with 10 μL of caspase, then diluted in assay buffer (0.5-40 nM active protein by active site titration). A control containing DMSO but no compound was included for each determination. The plates were then incubated for 15 minutes at 37° C., before addition of the appropriate substrate (20 μL, final concentration 1-4×KM, final assay volume 100 μL) to initiate the reaction. Reaction rates were measured at 37° C. either by following the time dependant increase in absorbance at 405 nm (for the pNA substrates) or in fluorescence (Ex 390, Em 460) (for the AMC substrates). The rates obtained were plotted against inhibitor concentration and the data fit to the Morrison tight-binding equation for competitive inhibitors (Morrison, J. F., Biochem. Biophys. Acta, 185 pp. 269-286 (1969)). The substrates used for the individual assays were as follows:
Caspase-1 Suc-YVAD-pNA (Bachem, King of Prussia, Pa.) (final concentration in the assay 80 μM);

caspase-8 = caspase-8 (Homo sapiens, UniProt Q14790); assay: Caspase-8 enzyme inhibition (Ki, method of Margolin et al.); assay type: biochemical; conditions: Ac-DEVD-pNA substrate 80 μM, 37° C., pH 7.5; read-out: Ki C8
caspase-8, sequence (Q14790 217-374 limits assumed, species assumed): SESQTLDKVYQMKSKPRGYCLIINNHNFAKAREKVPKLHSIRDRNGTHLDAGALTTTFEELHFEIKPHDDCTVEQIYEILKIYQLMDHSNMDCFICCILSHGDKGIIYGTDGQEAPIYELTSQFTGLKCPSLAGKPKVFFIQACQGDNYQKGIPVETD
caspase-8, sequence (Q14790 385-479 limits assumed, species assumed): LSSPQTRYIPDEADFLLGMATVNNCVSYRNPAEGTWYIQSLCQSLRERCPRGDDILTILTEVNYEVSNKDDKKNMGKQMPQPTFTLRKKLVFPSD
Experimental: as §1, §2, §3
Caspase-8 Ac-DEVD-pNA (Bachem, King of Prussia, Pa.) (final concentration in assay 80 μM).

| Compound | Ki (caspase-1) [nM] | Ki (caspase-8) [nM] |
| --- | --- | --- |
| CC(C)[C@H](NC(=O)c1cccc(C(F)(F)F)c1Cl)C(=O)N1CCC[C@H]1C(=O)N[C@H](C=O)CC(=O)O [II-9, (S,S,S)-(3S)-({1-[(2S)-(2-Chloro-3-trifluoromethyl-benzoylamino)-3-methyl-butyryl]-pyrrolidine-(2S)-carbonyl}-amino)-4-oxo-butyric acid] | < 10 | 10 to 20 |
| COc1cccc(C(=O)N[C@H](C(=O)N2CCC[C@H]2C(=O)N[C@H](C=O)CC(=O)O)C(C)(C)C)c1C [II-20, (S,S,S)-(3S)-({1-[(2S)-(3-Methoxy-2-methyl-benzoylamino)-3,3-dimethyl-butyryl]-pyrrolidine-(2S)-carbonyl}-amino)-4-oxo-butyric acid] | < 10 | < 10 |
| COc1cccc(C(=O)N[C@@H](CC(F)(F)F)C(=O)N2CCC[C@H]2C(=O)N[C@H](C=O)CC(=O)O)c1C [II-21, (S,S,S)-4-Oxo-(3S)-({1-[4,4,4-trifluoro-(2S)-(2-methyl-3-methoxy-benzoylamino)-butyryl]-pyrrolidine-(2S)-carbonyl}-amino)-butyric acid] | < 10 | 21 to 30 |
| COc1ccc(C)c(C(=O)N[C@H](C(=O)N2CCC[C@H]2C(=O)N[C@H](C=O)CC(=O)O)C(C)C)c1 [II-22, (S,S,S)-(3S)-({1-[(2S)-(5-Methoxy-2-methyl-benzoylamino)-3-methyl-butyryl]-pyrrolidine-(2S)-carbonyl}-amino)-4-oxo-butyric acid] | < 10 | 21 to 30 |
| COc1cccc(C(=O)N[C@@H](Cc2cscn2)C(=O)N2CCC[C@H]2C(=O)N[C@H](C=O)CC(=O)O)c1C [II-23, (S,S,S)-(3S)-({1-[(2S)-(3-Methoxy-2-methyl-benzoylamino)-3-thiazol-4-yl-propionyl]-pyrrolidine-(2S)-carbonyl}-amino)-4-oxo-butyric acid] | < 10 | 21 to 30 |
| O=C[C@H](CC(=O)O)NC(=O)[C@@H]1CCCN1C(=O)[C@H](CC(F)(F)F)NC(=O)c1ccccc1Cl [II-24, (S,S,S)-(3S)-({1-[(2S)-(2-Chloro-benzoylamino)-4,4,4-trifluoro-butyryl]-pyrrolidine-(2S)-carbonyl}-amino)-4-oxo-butyric acid] | < 10 | 21 to 30 |
| O=C[C@H](CC(=O)O)NC(=O)[C@@H]1CCCN1C(=O)[C@H](Cc1cscn1)NC(=O)c1ccccc1Cl [II-25, (S,S,S)-(3S)-({1-[(2S)-(2-Chloro-benzoylamino)-3-thiazol-4-yl-propionyl]-pyrrolidine-(2S)-carbonyl}-amino)-4-oxo-butyric acid] | < 10 | 21 to 30 |
| Cc1ccccc1C(=O)N[C@H](C(=O)N1CCC[C@H]1C(=O)N[C@H](C=O)CC(=O)O)C(C)(C)C [II-26, (S,S,S)-(3S)-({1-[3,3-Dimethyl-(2S)-(2-methyl-benzoylamino)-butyryl]-pyrrolidine-(2S)-carbonyl}-amino)-4-oxo-butyric acid] | < 10 | < 10 |
| CC(C)[C@H](NC(=O)c1ccccc1C(F)(F)F)C(=O)N1CCC[C@H]1C(=O)N[C@H](C=O)CC(=O)O [II-27, (S,S,S)-(3S)-({1-[3-Methyl-(2S)-(2-trifluoromethyl-benzoylamino)-butyryl]-pyrrolidine-(2S)-carbonyl}-amino)-4-oxo-butyric acid] | < 10 | < 10 |
| CC(C)(C)[C@H](NC(=O)c1ccccc1Cl)C(=O)N1CCC[C@H]1C(=O)N[C@H](C=O)CC(=O)O [II-28, (S,S,S)-(3S)-({1-[(2S)-(2-Chloro-benzoylamino)-3,3-dimethyl-butyryl]-pyrrolidine-(2S)-carbonyl}-amino)-4-oxo-butyric acid] | < 10 | < 10 |
| CC(C)(C)[C@H](NC(=O)c1ccccc1C(F)(F)F)C(=O)N1CCC[C@H]1C(=O)N[C@H](C=O)CC(=O)O [II-29, (S,S,S)-(3S)-({1-[3,3-Dimethyl-(2S)-(2-trifluoromethyl-benzoylamino)-butyryl]-pyrrolidine-(2S)-carbonyl}-amino)-4-oxo-butyric acid] | < 10 | < 10 |
| COc1cccc(C(=O)N[C@H](C(=O)N2CCC[C@H]2C(=O)N[C@H](C=O)CC(=O)O)C(C)(C)C)c1Cl [II-30, (S,S,S)-(3S)-({1-[(2S)-(2-Chloro-3-methoxy-benzoylamino)-3,3-dimethyl-butyryl]-pyrrolidine-(2S)-carbonyl}-amino)-4-oxo-butyric acid] | < 10 | < 10 |
| COc1cccc(C(=O)N[C@H](C(=O)N2CCC[C@H]2C(=O)N[C@H](C=O)CC(=O)O)C(C)(C)C)c1F [II-31, (S,S,S)-(3S)-({1-[(2S)-(2-Fluoro-3-methoxy-benzoylamino)-3,3-dimethyl-butyryl]-pyrrolidine-(2S)-carbonyl}-amino)-4-oxo-butyric acid] | < 10 | < 10 |

Continued, values first:

| Ki (caspase-1) [nM] | Ki (caspase-8) [nM] | Compound |
| --- | --- | --- |
| < 10 | 10 to 20 | Cc1c(Cl)cccc1C(=O)N[C@H](C(=O)N1CCC[C@H]1C(=O)N[C@H](C=O)CC(=O)O)C(C)C [II-10, (S,S,S)-(3S)-({1-[(2S)-(3-Chloro-2-methyl-benzoylamino)-3-methyl-butyryl]-pyrrolidine-(2S)-carbonyl}-amino)-4-oxo-butyric acid] |
| < 10 | 21 to 30 | CC(C)[C@H](NC(=O)c1ccc(Cl)cc1Cl)C(=O)N1CCC[C@H]1C(=O)N[C@H](C=O)CC(=O)O [II-11, (S,S,S)-(3S)-({1-[(2S)-(2,4-Dichloro-benzoylamino)-3-methyl-butyryl]-pyrrolidine-(2S)-carbonyl}-amino)-4-oxo-butyric acid] |
| < 10 | 10 to 20 | CC(C)[C@H](NC(=O)c1cc(Cl)ccc1Cl)C(=O)N1CCC[C@H]1C(=O)N[C@H](C=O)CC(=O)O [II-12, (S,S,S)-(3S)-({1-[(2S)-(2,5-Dichloro-benzoylamino)-3-methyl-butyryl]-pyrrolidine-(2S)-carbonyl}-amino)-4-oxo-butyric acid] |
| 10 to 20 | 10 to 20 | CC(C)[C@H](NC(=O)c1c(Cl)cccc1Cl)C(=O)N1CCC[C@H]1C(=O)N[C@H](C=O)CC(=O)O [II-13, (S,S,S)-(3S)-({1-[(2S)-(2,6-Dichloro-benzoylamino)-3-methyl-butyryl]-pyrrolidine-(2S)-carbonyl}-amino)-4-oxo-butyric acid] |
| 10 to 20 | < 10 | Cc1cccc(C)c1C(=O)N[C@H](C(=O)N1CCC[C@H]1C(=O)N[C@H](C=O)CC(=O)O)C(C)C [II-14, (S,S,S)-(3S)-({1-[(2S)-(2,6-Methyl-benzoylamino)-3-methyl-butyryl]-pyrrolidine-(2S)-carbonyl}-amino)-4-oxo-butyric acid] |
| < 10 | 21 to 30 | Cc1ncccc1C(=O)N[C@H](C(=O)N1CCC[C@H]1C(=O)N[C@H](C=O)CC(=O)O)C(C)C [II-15, (S,S,S)-(3S)-[(1-{3-Methyl-(2S)-[(2-methyl-pyridine-3-carbonyl)-amino]-butyryl}-pyrrolidine-(2S)-carbonyl)-amino]-4-oxo-butyric acid] |
| < 10 | 21 to 30 | Cc1ccncc1C(=O)N[C@H](C(=O)N1CCC[C@H]1C(=O)N[C@H](C=O)CC(=O)O)C(C)C [II-16, (S,S,S)-(3S)-[(1-{3-Methyl-(2S)-[(4-methyl-pyridine-3-carbonyl)-amino]-butyryl}-pyrrolidine-(2S)-carbonyl)-amino]-4-oxo-butyric acid] |
| < 10 | < 10 | Cc1ccsc1C(=O)N[C@H](C(=O)N1CCC[C@H]1C(=O)N[C@H](C=O)CC(=O)O)C(C)C [II-17, (S,S,S)-(3S)-[(1-{3-Methyl-(2S)-[(3-methyl-thiophene-2-carbonyl)-amino]-butyryl}-pyrrolidine-(2S)-carbonyl)-amino]-4-oxo-butyric acid] |
| < 10 | 10 to 20 | CC(C)[C@H](NC(=O)c1ccnc(Cl)c1Cl)C(=O)N1CCC[C@H]1C(=O)N[C@H](C=O)CC(=O)O [II-18, (S,S,S)-(3S)-[(1-{(2S)-[(2,3-Dichloro-pyridine-4-carbonyl)-amino]-3-methyl-butyryl}-pyrrolidine-(2S)-carbonyl)-amino]-4-oxo-butyric acid] |
| 10 to 20 | < 10 | CC(C)[C@H](NC(=O)c1c(Cl)cncc1Cl)C(=O)N1CCC[C@H]1C(=O)N[C@H](C=O)CC(=O)O [II-19, (S,S,S)-(3S)-[(1-{(2S)-[(3,5-Dichloro-pyridine-4-carbonyl)-amino]-3-methyl-butyryl}-pyrrolidine-(2S)-carbonyl)-amino]-4-oxo-butyric acid] |
